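The compound was tested at five concentrations on cells cultured in 96-well plates, with a 48-hour exposure period. Here, GI50 denotes the concentration required for 50% inhibition of growth.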 The source made the active and inactive calls. Rule as the data show it: active = GI50 up to about 1.1 µM and inactive = higher. Residues, ends and D or L forms follow the SMILES beside them. *: point of attachment. Pentanoyl = CCCCC(=O)*; Boc = CC(C)(C)OC(=O)*
Key:
Experiment in all cases: DTP human tumour cell line panel, 48 h
786-0 = tested on: 786-0
A498 = tested on: A498
A549 = tested on: A549
ACHN = tested on: ACHN
BT-549 = tested on: BT-549
CAKI-1 = tested on: CAKI-1
CCRF-CEM = tested on: CCRF-CEM
COLO 205 = tested on: COLO 205
DU-145 = tested on: DU-145
HCC 2998 = tested on: HCC 2998
HCT-116 = tested on: HCT-116
HCT-15 = tested on: HCT-15
HL-60 = tested on: HL-60
HOP-62 = tested on: HOP-62
HOP-92 = tested on: HOP-92
HT-29 = tested on: HT-29
Hs-578T = tested on: Hs-578T
IGROV-1 = tested on: IGROV-1
K562 = tested on: K562
KM12 = tested on: KM12
LOX IMVI = tested on: LOX IMVI
M14 = tested on: M14
MCF7 = tested on: MCF7
MDA-MB-231 = tested on: MDA-MB-231
MDA-MB-435 = tested on: MDA-MB-435
MDA-N = tested on: MDA-N
MOLT-4 = tested on: MOLT-4
Malme-3M = tested on: Malme-3M
NCI-H226 = tested on: NCI-H226
NCI-H23 = tested on: NCI-H23
NCI-H460 = tested on: NCI-H460
NCI-H522 = tested on: NCI-H522
NCI/ADR-RES = tested on: NCI/ADR-RES
OVCAR-3 = tested on: OVCAR-3
OVCAR-4 = tested on: OVCAR-4
OVCAR-5 = tested on: OVCAR-5
OVCAR-8 = tested on: OVCAR-8
PC-3 = tested on: PC-3
RPMI-8226 = tested on: RPMI-8226
RXF 393 = tested on: RXF 393
SF-268 = tested on: SF-268
SF-295 = tested on: SF-295
SF-539 = tested on: SF-539
SK-MEL-28 = tested on: SK-MEL-28
SK-MEL-2 = tested on: SK-MEL-2
SK-MEL-5 = tested on: SK-MEL-5
SK-OV-3 = tested on: SK-OV-3
SN12C = tested on: SN12C
SNB-19 = tested on: SNB-19
SNB-75 = tested on: SNB-75
SW-620 = tested on: SW-620
T47D = tested on: T47D
TK-10 = tested on: TK-10
U-251 = tested on: U-251
UACC-257 = tested on: UACC-257
UACC-62 = tested on: UACC-62
UO-31 = tested on: UO-31

SMILES: CCCCC(=O)Oc1ccc(CC(NC(=O)OC(C)(C)C)C(=O)NC(C)C(=O)NC(Cc2ccccc2)C(=O)NCC(N)=O)cc1 (configuration not stated) (Boc-Y(Pentanoyl)AFG-NH2; configuration not given here)
- GI50 (786-0): 43.6 µM (inactive)
- GI50 (A498): > 100 µM (inactive)
- GI50 (A549): > 100 µM (inactive)
- GI50 (ACHN): > 100 µM (inactive)
- GI50 (BT-549): 23.7 µM (inactive)
- GI50 (CAKI-1): > 100 µM (inactive)
- GI50 (CCRF-CEM): 40.6 µM (inactive)
- GI50 (COLO 205): 19.6 µM (inactive)
- GI50 (DU-145): > 100 µM (inactive)
- GI50 (HCC 2998): 20.6 µM (inactive)
- GI50 (HCT-116): 21.4 µM (inactive)
- GI50 (HCT-15): > 100 µM
- GI50 (HL-60): 26.4 µM (inactive)
- GI50 (HOP-62): 17.3 µM (inactive)
- GI50 (HOP-92): 16.2 µM (inactive)
- GI50 (HT-29): 19.4 µM (inactive)
- GI50 (Hs-578T): 34.6 µM (inactive)
- GI50 (IGROV-1): 19.7 µM (inactive)
- GI50 (K562): 46.3 µM (inactive)
- GI50 (KM12): 23.7 µM (inactive)
- GI50 (LOX IMVI): 16.1 µM (inactive)
- GI50 (M14): 36.7 µM (inactive)
- GI50 (MCF7): 20.5 µM (inactive)
- GI50 (MDA-MB-231): 20 µM (inactive)
- GI50 (MDA-MB-435): 20 µM (inactive)
- GI50 (MDA-N): 25.9 µM (inactive)
- GI50 (MOLT-4): 24.3 µM (inactive)
- GI50 (Malme-3M): 31.6 µM (inactive)
- GI50 (NCI-H226): > 100 µM (inactive)
- GI50 (NCI-H23): 41 µM (inactive)
- GI50 (NCI-H460): 31.7 µM (inactive)
- GI50 (NCI-H522): 18.8 µM (inactive)
- GI50 (NCI/ADR-RES): > 100 µM (inactive)
- GI50 (OVCAR-3): 20.4 µM (inactive)
- GI50 (OVCAR-4): 74.1 µM (inactive)
- GI50 (OVCAR-5): 21.9 µM (inactive)
- GI50 (OVCAR-8): 16.8 µM (inactive)
- GI50 (PC-3): 43.9 µM (inactive)
- GI50 (RPMI-8226): 21.2 µM (inactive)
- GI50 (RXF 393): 44.5 µM (inactive)
- GI50 (SF-268): 31.6 µM (inactive)
- GI50 (SF-295): 63.8 µM (inactive)
- GI50 (SF-539): 33.3 µM (inactive)
- GI50 (SK-MEL-28): 27.3 µM (inactive)
- GI50 (SK-MEL-2): 20.7 µM (inactive)
- GI50 (SK-MEL-5): 70 µM (inactive)
- GI50 (SK-OV-3): 32.6 µM (inactive)
- GI50 (SN12C): 32.3 µM (inactive)
- GI50 (SNB-19): 23.3 µM (inactive)
- GI50 (SNB-75): 45.5 µM (inactive)
- GI50 (SW-620): 44.8 µM (inactive)
- GI50 (T47D): 27.4 µM (inactive)
- GI50 (TK-10): > 100 µM (inactive)
- GI50 (U-251): 20.5 µM (inactive)
- GI50 (UACC-257): 27.7 µM (inactive)
- GI50 (UACC-62): 20.5 µM (inactive)
- GI50 (UO-31): > 100 µM (inactive)

Reference: ChEMBL document CHEMBL1201862, “PubChem BioAssay data set” (2004)
